Results as given in PMC2945764, “Carboxypeptidase A6 in Zebrafish Development and Implications for VIth Cranial Nerve Pathfinding” (PLoS ONE, 2010).

Target: T1, zebrafish CPA6 (zCPA6) (Danio rerio, UniProt E7F2H8)
T1 construct: full-length cDNA in pcDNA3.1, untagged, expressed in HEK293T cells; mature 65 kDa with EGFP
T1 sequence (E7F2H8 133-442): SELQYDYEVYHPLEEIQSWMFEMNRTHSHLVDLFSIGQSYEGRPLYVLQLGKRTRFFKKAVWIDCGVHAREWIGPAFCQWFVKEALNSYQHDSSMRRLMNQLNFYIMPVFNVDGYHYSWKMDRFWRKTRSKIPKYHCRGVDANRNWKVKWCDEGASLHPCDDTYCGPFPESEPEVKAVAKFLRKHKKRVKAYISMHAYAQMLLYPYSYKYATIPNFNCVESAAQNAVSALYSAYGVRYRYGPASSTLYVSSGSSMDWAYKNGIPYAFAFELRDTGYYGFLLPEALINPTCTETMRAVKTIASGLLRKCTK
Test: decrease in absorbance at […] nm, ECM-bound enzyme of transfected HEK293T cells against untransfected wells
Assay type: biochemical
Details: 0.5 mM substrate, 50 mM Tris-HCl pH 7.5, 150 mM NaCl, 37 °C; untagged enzyme

Row | SMILES | decrease in absorbance at 336 nm, ECM-bound enzyme of transfected HEK293T cells
1 | CC(C)C[C@H](NC(=O)[C@H](CCCNC(=N)N)NC(=O)C=Cc1ccco1)C(=O)O [fa-RL, fa–RL] | fa-FF and fa–RL were most rapidly cleaved
2 | O=C(C=Cc1ccco1)N[C@@H](Cc1ccccc1)C(=O)N[C@@H](Cc1ccccc1)C(=O)O [fa-FF] | fa-FF and fa–RL were most rapidly cleaved
